Results taken from patent US9682962B2, “Pyrazolyl pyrimidinamine compound and application thereof” (SHENYANG SINOCHEM AGROCHEMICALS R&D CO., LTD., priority 2013, dated 2017).

Experiments:
[1] = tested on: wheat powdery mildew; assay: Protectant activity in vivo (whole plant), wheat powdery mildew; settings: for control effect against wheat powdery mildew (%): protectant activity
Description: (§1) The method is as followed: The whole plant is used in this test. The compound is dissolved in a proper solvent to get mother solution. The proper solvent is selected from acetone, methanol, DMF and so on according to their dissolving capability to the sample. […] The testing solution is sprayed to the host plant by a special plant sprayer. The plant is inoculated with fungus after 24 hours. According to the infecting characteristic of fungus, the plant is stored in a humidity chamber and then transferred into greenhouse after infection is finished. And the other plants are placed in greenhouse directly.

[2] = tested on: cucumber downy mildew; assay: Protectant activity in vivo (whole plant), cucumber downy mildew; settings: protectant activity
Description: as §1

[3] = tested on: Green peach aphids (Myzus Persicae Sulzer); assay: Bioactivity test against green peach aphid (airbrush foliar spray); assay type: in vivo
Description: Compounds were dissolved in mixed solvent (acetone:methanol=1:1), and diluted to required concentration with water containing 0.1% of tween 80.
Diamond back moth, armyworm, peach aphid and carmine spider mite were used as targets and the method of spraying by airbrush was used for determination of insecticidal bioassays.
Method: Filter papers were put in culture dishes (Diameter=6 cm), and water was dripped on filter papers for preserving moisture. Green peach aphids (Myzus Persicae Sulzer) were maintained on cabbage. Leaves (Diameter=3 cm) of approximately 15-30 aphids were put in the culture dishes. Bioactivity tests were used the method of Airbrush Foliar Spray, pressure=10 psi (0.7 kg/cm2), spray volume=0.5 mL. The studies were conducted at […] 25±1 C in incubator cabinets with 60±5% RH. Survey the survival aphids after 48 h and calculate the death rates.

[4] = tested on: cucumber anthracnose; assay: Protectant activity in vivo (whole plant), cucumber anthracnose; settings: for control effect against cucumber anthracnose (%): protectant activity
Description: as §1

Row | SMILES | control effect against wheat powdery mildew (%) ([1]; 6.25 mg/L) | control effect against wheat powdery mildew (%) ([1]; 25 mg/L) | control effect against wheat powdery mildew (%) ([1]; 100 mg/L) | control effect against wheat powdery mildew (%) ([1]; 400 mg/L) | control effect against cucumber downy mildew(%) ([2]; 25 mg/L) | control effect against cucumber downy mildew(%) ([2]; 50 mg/L) | control effect against cucumber downy mildew(%) ([2]; 100 mg/L) | control effect against cucumber downy mildew(%) ([2]; 400 mg/L) | Insecticidal activity against peach aphid (%) ([3]; 10 mg/L) | Insecticidal activity against peach aphid (%) ([3]; 100 mg/L) | Insecticidal activity against peach aphid (%) ([3]; 600 mg/L) | further results
1 | Cc1ncnc(NCCc2cnn(-c3ccc(C(F)(F)F)cc3)c2)c1Cl [Compound 309] | 80 | 85 | 90 | 100 |  |  |  |  |  |  |  | 
2 | COc1ccc(-n2cc(CCNc3nc(C)nc(C)c3Cl)cn2)cc1 [Compound 1424] |  |  |  |  | 98 | 100 | 100 | 100 |  |  |  | 
3 | CCc1ncnc(NCCc2cnn(-c3ccc(Cl)cc3Cl)c2)c1Cl [Compound 539] |  |  |  |  | 100 | 100 | 100 | 100 |  |  |  | 
4 | CCc1ncnc(NCCc2cnn(-c3ncccc3Cl)c2)c1Cl [Compound 4733] |  |  |  |  |  |  |  |  | 88 | 100 | 100 | control against Green Peach Aphid (death rate) ([3]; 10 ppm, after 48 h): more than 80%
5 | Fc1ccc(-n2cc(CCNc3ncnc(C(F)F)c3Cl)cn2)cc1 [Compound 800] | 95 | 100 | 100 | 100 | 98 | 100 | 100 | 100 | 71 | 100 | 100 | 
6 | FC(F)c1ncnc(NCCc2cnn(Cc3ccc(Cl)cc3)c2)c1Cl [Compound 5935] |  |  |  |  | 95 | 100 | 100 | 100 | 61 | 56 | 100 | control effect against cucumber downy mildew(%) ([2]; 12.5 mg/L): 50%
7 | CCc1ncnc(NCCc2cnn(-c3ccc(C)cc3)c2)c1Cl [Compound 575] |  |  |  |  |  |  |  |  | 73 | 88 | 92 | 
8 | Cc1ncnc(NCCc2cnn(-c3c(Cl)cc(C(F)(F)F)cc3Cl)c2)c1Cl [Compound 406] | 90 | 98 | 100 | 100 |  |  |  |  | 28 | 95 | 100 | 
9 | CCc1ncnc(NCCc2cnn(-c3ccc(OC)cc3)c2)c1Cl [Compound 590] |  |  |  |  | 100 | 100 | 100 | 100 |  |  |  | 
10 | CC(C)(C)n1cc(CCNc2ncnc(C(F)F)c2Cl)cn1 [Compound 38] | 40 | 100 | 100 | 100 |  |  |  |  |  | 100 | 100 | control effect against cucumber anthracnose (%) ([4]; 6.25 mg/L): 85%; control effect against cucumber anthracnose (%) ([4]; 25 mg/L): 90%; control effect against cucumber anthracnose (%) ([4]; 100 mg/L): 95%; control effect against cucumber anthracnose (%) ([4]; 400 mg/L): 100%
11 | COc1ccc(-n2cc(CCNc3ncnc(C(F)F)c3Cl)cn2)cc1 [Compound 868] | 100 | 100 | 100 | 100 | 100 | 100 | 100 | 100 |  |  |  | protectant activity against wheat powdery mildew in vivo ([1]; 1.6 ppm): 80%; control effect against cucumber downy mildew(%) ([2]; 12.5 mg/L): 85%
12 | COc1ccc(-n2cc(CCNc3ncnc(C)c3Cl)cn2)cc1 [Compound 312] | 95 | 100 | 100 | 100 | 100 | 100 | 100 | 100 |  |  |  | 
13 | CCc1ncnc(NCCc2cnn(-c3ccc(F)cc3)c2)c1Cl [Compound 522] |  |  |  |  |  |  |  |  | 33 | 96 | 100 | 
14 | Cc1ccc(-n2cc(CCNc3ncnc(C(F)F)c3Cl)cn2)cc1 [Compound 853] |  |  |  |  | 80 | 100 | 100 | 100 |  |  |  | 
15 | CCc1ncnc(NCCc2cnn(-c3ccc(OC(F)(F)F)cc3)c2)c1Cl [Compound 596] | 95 | 100 | 100 | 100 |  |  |  |  |  |  |  | control effect against cucumber anthracnose (%) ([4]; 6.25 mg/L): 75%; control effect against cucumber anthracnose (%) ([4]; 25 mg/L): 98%; control effect against cucumber anthracnose (%) ([4]; 100 mg/L): 100%; control effect against cucumber anthracnose (%) ([4]; 400 mg/L): 100%
16 | FC(F)c1ncnc(NCCc2cnn(-c3ccc(OC(F)(F)F)cc3)c2)c1Cl [Compound 874] | 100 | 100 | 100 | 100 |  |  |  |  |  |  |  | control effect against cucumber anthracnose (%) ([4]; 0.78 mg/L): 0%; control effect against cucumber anthracnose (%) ([4]; 1.56 mg/L): 20%; control effect against cucumber anthracnose (%) ([4]; 3.13 mg/L): 60%; control effect against cucumber anthracnose (%) ([4]; 6.25 mg/L): 98%; control effect against cucumber anthracnose (%) ([4]; 25 mg/L): 100%; control effect against cucumber anthracnose (%) ([4]; 100 mg/L): 100%; control effect against cucumber anthracnose (%) ([4]; 400 mg/L): 100%
17 | CCc1ncnc(NCCc2cnn(-c3ccc(C(F)(F)F)cc3)c2)c1Cl [Compound 587] |  |  |  |  |  |  |  |  |  | 93 | 100 | 
18 | FC(F)c1ncnc(NCCc2cnn(-c3ccc(Cl)cc3)c2)c1Cl [Compound 815] | 80 | 100 | 100 | 100 |  |  |  |  | 41 | 94 | 100 | 
19 | Cc1ncnc(NCCc2cnn(-c3ccc(F)cc3)c2)c1Cl [Compound 244] | 50 | 80 | 100 | 100 |  |  |  |  | 65 | 71 | 91 | 
20 | Cc1ncnc(NCCc2cnn(-c3ccc(Cl)cc3Cl)c2)c1Cl [Compound 261] | 50 | 60 | 80 | 100 | 100 | 100 | 100 | 100 |  |  |  | control effect against cucumber downy mildew(%) ([2]; 12.5 mg/L): 100%
21 | Cc1ncnc(NCCc2cnn(C(C)(C)C)c2)c1Cl [Compound 8] |  |  | 100 | 100 |  |  |  |  |  |  |  | control effect against cucumber anthracnose (%) ([4]; 6.25 mg/L): 60%; control effect against cucumber anthracnose (%) ([4]; 25 mg/L): 80%; control effect against cucumber anthracnose (%) ([4]; 100 mg/L): 90%; control effect against cucumber anthracnose (%) ([4]; 400 mg/L): 100%
22 | Cc1ncnc(NCCc2cnn(-c3ccc(OC(F)(F)F)cc3)c2)c1Cl [Compound 318] | 90 | 100 | 100 | 100 | 90 | 98 | 100 | 100 |  |  |  | control effect against cucumber anthracnose (%) ([4]; 0.78 mg/L): 98%; control effect against cucumber anthracnose (%) ([4]; 1.56 mg/L): 98%; control effect against cucumber anthracnose (%) ([4]; 3.13 mg/L): 100%; control effect against cucumber anthracnose (%) ([4]; 6.25 mg/L): 100%; control effect against cucumber anthracnose (%) ([4]; 25 mg/L): 100%; control effect against cucumber anthracnose (%) ([4]; 100 mg/L): 100%; control effect against cucumber anthracnose (%) ([4]; 400 mg/L): 100%; protectant activity against cucumber anthracnose in vivo ([4]; 0.78 ppm): 98%; protectant activity against cucumber anthracnose in vivo ([4]; 1.56 ppm): 98%; protectant activity against cucumber anthracnose in vivo ([4]; 3.13 ppm): 100%
